# Experimental data published in the NIST ThermoML archive (doi:10.1016/j.jct.2018.10.012).
# Numbers after ± are expanded uncertainties.
# Conditions: Liquid; for viscosity / mass density: 101.33 kPa; for viscosity: Capillary tube (Ostwald / Ubbelohde) method; for mass density: Pycnometric method; for vapor or sublimation pressure: Ebulliometric method (Recirculating still)
structure (smiles),measurement,setting,value
CCCCCCCCCCCCCCCC(=O)OCC(CC)CCCC (stereo unspecified) [2-ethylhexyl palmitate],viscosity,298.15 K,11.78 ± 0.48 mPa·s
same,mass density,298.15 K,855.1 ± 0.9 kg/m3
same,viscosity,303.15 K,10.01 ± 0.41 mPa·s
same,mass density,303.15 K,851 ± 0.9 kg/m3
same,viscosity,308.15 K,8.28 ± 0.34 mPa·s
same,mass density,308.15 K,847.9 ± 0.9 kg/m3
same,viscosity,313.15 K,7.16 ± 0.29 mPa·s
same,mass density,313.15 K,844.5 ± 0.9 kg/m3
same,viscosity,318.15 K,6.26 ± 0.25 mPa·s
same,mass density,318.15 K,840.9 ± 0.9 kg/m3
same,viscosity,323.15 K,5.64 ± 0.23 mPa·s
same,mass density,323.15 K,837.4 ± 0.9 kg/m3
same,viscosity,328.15 K,4.94 ± 0.2 mPa·s
same,mass density,328.15 K,834 ± 0.9 kg/m3
same,viscosity,333.15 K,4.41 ± 0.18 mPa·s
same,mass density,333.15 K,830.3 ± 0.9 kg/m3
same,viscosity,338.15 K,3.94 ± 0.16 mPa·s
same,mass density,338.15 K,826.7 ± 0.9 kg/m3
same,viscosity,343.15 K,3.55 ± 0.14 mPa·s
same,mass density,343.15 K,823.3 ± 0.9 kg/m3
same,viscosity,348.15 K,3.24 ± 0.13 mPa·s
same,mass density,348.15 K,820.1 ± 0.9 kg/m3
same,viscosity,353.15 K,2.94 ± 0.12 mPa·s
same,mass density,353.15 K,816.8 ± 0.9 kg/m3
same,viscosity,358.15 K,2.71 ± 0.11 mPa·s
same,mass density,358.15 K,813.2 ± 0.9 kg/m3
same,viscosity,363.15 K,2.49 ± 0.1 mPa·s
same,mass density,363.15 K,810 ± 0.9 kg/m3
same,viscosity,368.15 K,2.29 ± 0.09 mPa·s
same,mass density,368.15 K,806.9 ± 0.9 kg/m3
same,vapor or sublimation pressure,476.95 K,0.307 ± 0.029 kPa
same,vapor or sublimation pressure,479.35 K,0.333 ± 0.029 kPa
same,vapor or sublimation pressure,482.35 K,0.387 ± 0.029 kPa
same,vapor or sublimation pressure,484.95 K,0.427 ± 0.029 kPa
same,vapor or sublimation pressure,488.05 K,0.493 ± 0.029 kPa
same,vapor or sublimation pressure,490.35 K,0.547 ± 0.029 kPa
same,vapor or sublimation pressure,491.45 K,0.573 ± 0.029 kPa
same,vapor or sublimation pressure,493.85 K,0.627 ± 0.029 kPa
same,vapor or sublimation pressure,496.05 K,0.68 ± 0.029 kPa
same,vapor or sublimation pressure,497.35 K,0.733 ± 0.029 kPa
same,vapor or sublimation pressure,499.35 K,0.8 ± 0.029 kPa
same,vapor or sublimation pressure,500.85 K,0.853 ± 0.029 kPa
CCCCCCCCCCCCCCCC(=O)OC [methyl hexadecanoate],vapor or sublimation pressure,419.15 K,0.213 ± 0.029 kPa
same,vapor or sublimation pressure,423.15 K,0.279 ± 0.029 kPa
same,vapor or sublimation pressure,425.25 K,0.306 ± 0.029 kPa
same,vapor or sublimation pressure,428.35 K,0.346 ± 0.029 kPa
same,vapor or sublimation pressure,430.75 K,0.399 ± 0.029 kPa
same,vapor or sublimation pressure,432.25 K,0.425 ± 0.029 kPa
same,vapor or sublimation pressure,433.35 K,0.452 ± 0.029 kPa
same,vapor or sublimation pressure,436.25 K,0.532 ± 0.029 kPa
same,vapor or sublimation pressure,438.45 K,0.585 ± 0.029 kPa
same,vapor or sublimation pressure,440.15 K,0.624 ± 0.029 kPa
same,vapor or sublimation pressure,442.35 K,0.705 ± 0.029 kPa
same,vapor or sublimation pressure,444.15 K,0.771 ± 0.029 kPa
CCCCCCCCCCCCCCCCCC(=O)OCC(CC)CCCC (stereo unspecified) [2-ethylhexyl stearate],viscosity,298.15 K,15.04 ± 0.61 mPa·s
same,mass density,298.15 K,855.4 ± 0.9 kg/m3
same,viscosity,303.15 K,12.55 ± 0.51 mPa·s
same,mass density,303.15 K,851.4 ± 0.9 kg/m3
same,viscosity,308.15 K,10.62 ± 0.43 mPa·s
same,mass density,308.15 K,847.9 ± 0.9 kg/m3
same,viscosity,313.15 K,9.06 ± 0.37 mPa·s
same,mass density,313.15 K,844.9 ± 0.9 kg/m3
same,viscosity,318.15 K,7.84 ± 0.32 mPa·s
same,mass density,318.15 K,841.1 ± 0.9 kg/m3
same,viscosity,323.15 K,6.81 ± 0.28 mPa·s
same,mass density,323.15 K,837.7 ± 0.9 kg/m3
same,viscosity,328.15 K,6.04 ± 0.25 mPa·s
same,mass density,328.15 K,834.4 ± 0.9 kg/m3
same,viscosity,333.15 K,5.34 ± 0.22 mPa·s
same,mass density,333.15 K,831.1 ± 0.9 kg/m3
same,viscosity,338.15 K,4.79 ± 0.19 mPa·s
same,mass density,338.15 K,827.8 ± 0.9 kg/m3
same,viscosity,343.15 K,4.36 ± 0.18 mPa·s
same,mass density,343.15 K,824.5 ± 0.9 kg/m3
same,viscosity,348.15 K,3.92 ± 0.16 mPa·s
same,mass density,348.15 K,821.1 ± 0.9 kg/m3
same,viscosity,353.15 K,3.58 ± 0.15 mPa·s
same,mass density,353.15 K,817.2 ± 0.9 kg/m3
same,viscosity,358.15 K,3.27 ± 0.13 mPa·s
same,mass density,358.15 K,814.2 ± 0.9 kg/m3
same,viscosity,363.15 K,3.02 ± 0.12 mPa·s
same,mass density,363.15 K,811.2 ± 0.9 kg/m3
same,viscosity,368.15 K,2.8 ± 0.11 mPa·s
same,mass density,368.15 K,808 ± 0.9 kg/m3
same,vapor or sublimation pressure,477.05 K,0.213 ± 0.029 kPa
same,vapor or sublimation pressure,479.65 K,0.253 ± 0.029 kPa
same,vapor or sublimation pressure,482.25 K,0.28 ± 0.029 kPa
same,vapor or sublimation pressure,483.45 K,0.307 ± 0.029 kPa
same,vapor or sublimation pressure,485.25 K,0.333 ± 0.029 kPa
same,vapor or sublimation pressure,487.55 K,0.373 ± 0.029 kPa
same,vapor or sublimation pressure,488.85 K,0.4 ± 0.029 kPa
same,vapor or sublimation pressure,491.25 K,0.44 ± 0.029 kPa
same,vapor or sublimation pressure,493.25 K,0.493 ± 0.029 kPa
same,vapor or sublimation pressure,495.25 K,0.547 ± 0.029 kPa
same,vapor or sublimation pressure,496.25 K,0.573 ± 0.029 kPa
same,vapor or sublimation pressure,498.05 K,0.613 ± 0.029 kPa
